This assay addresses T1, human RXFP1 (Homo sapiens, UniProt Q9HBX9).
T1 construct: expressed in transfected cells
T1 sequence (Q9HBX9 1-757): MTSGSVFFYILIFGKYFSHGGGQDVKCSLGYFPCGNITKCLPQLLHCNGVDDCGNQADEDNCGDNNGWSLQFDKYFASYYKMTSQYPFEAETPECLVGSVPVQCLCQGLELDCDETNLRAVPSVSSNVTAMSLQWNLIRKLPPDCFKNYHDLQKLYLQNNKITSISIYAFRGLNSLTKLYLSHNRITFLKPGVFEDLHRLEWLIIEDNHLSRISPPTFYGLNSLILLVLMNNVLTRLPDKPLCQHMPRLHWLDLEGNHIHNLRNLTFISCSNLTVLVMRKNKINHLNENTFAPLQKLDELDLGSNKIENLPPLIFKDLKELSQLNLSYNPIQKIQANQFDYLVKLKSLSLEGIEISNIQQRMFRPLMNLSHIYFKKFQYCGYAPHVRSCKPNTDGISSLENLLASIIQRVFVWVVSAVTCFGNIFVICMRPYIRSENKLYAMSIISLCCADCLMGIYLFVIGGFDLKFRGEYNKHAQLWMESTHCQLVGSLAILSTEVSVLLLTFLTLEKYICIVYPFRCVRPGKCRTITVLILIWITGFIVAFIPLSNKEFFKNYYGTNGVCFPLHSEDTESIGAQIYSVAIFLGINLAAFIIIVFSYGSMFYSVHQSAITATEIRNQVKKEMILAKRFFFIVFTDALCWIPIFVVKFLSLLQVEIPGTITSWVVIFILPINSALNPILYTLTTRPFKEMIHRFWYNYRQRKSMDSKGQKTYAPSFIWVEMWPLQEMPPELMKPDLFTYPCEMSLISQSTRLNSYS
In words: human RXFP1 (hRXFP1) HEK293 cAMP assay (HTRF). The assay is classed as cell-based. The following applies: HEK293 cells stably expressing human RXFP1, 30 min at room temperature. The gist of the method: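 HEK293 cells stably expressing human RXFP1 (1500 cells/well) in HBSS/20 mM HEPES/0.05% BSA/0.5 mM IBMX, treated with compound (0.010 nM–50 µM final, 2% DMSO) for 30 min at room temperature. Intracellular cAMP read by HTRF; potency from 4-parameter logistic fit of cAMP versus concentration.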
A general note: Cyclic AMP is a second messenger, typically raised through Gs and lowered through Gi signalling.

As for `COc1ncc(C2=NO[C@H]3C[C@H](C#N)CN23)cc1C(=O)N[C@@H]1C2CCC(/C2=C/C2CC2)[C@@H]1C(=O)Nc1ccc(F)c(C(F)(F)F)c1` (stereo partly drawn) [Example 134, 5-((6S,7aS)-6-cyano-5,6,7,7a-tetrahydropyrrolo [1,2-d][1,2,4]oxadiazo 1-3-yl)-N-((1R,2R,3S,4R,Z)-7-(cyclopropyl-methylene)-3-((4-fluoro-3-(trifluoromethyl)phenyl)carbamoyl)bicyclo[2.2.1]heptan-2-yl)-2-methoxynicotinamide], the midpoint of the response, the EC50, lay at 3.2 nM.

On to `COc1ncc(C2=NOC3CC(C(O)C(F)(F)F)CC23)cc1C(=O)N[C@H]1[C@@H](C(=O)Nc2ccc(F)c(C(F)(F)F)c2)[C@H]2CC[C@@H]1/C2=C\C1CC1` (stereo partly drawn) [Example 135, N-((1R,2R,3S,4R,Z)-7-(cyclopropyl-methylene)-3-((4-fluoro-3-(trifluoromethyl)phenyl)carbamoyl)bicyclo[2.2.1]heptan-2-yl)-2-methoxy-5-(5-(2,2,2-trifluoro-1-hydroxyethyl)-3a,5,6,6a-tetrahydro-4H-cyclopenta[d]isoxazol-3-yl)nicotinamide], for which the midpoint of the response, the EC50, lay at 4 nM.

Turning to `COc1ncc(C2=NOC3COCC23)cc1C(=O)N[C@H]1[C@@H](C(=O)Nc2ccc(F)c(C(F)(F)F)c2)[C@H]2CC[C@@H]1/C2=C\C1CCCC1` (stereo partly drawn) [Example 136, N-((1R,2R,3S,4R,Z)-7-(cyclopentyl-methylene)-3-((4-fluoro-3-(trifluoromethyl)phenyl)carbamoyl)bicyclo[2.2.1]heptan-2-yl)-2-methoxy-5-(3a,4,6,6a-tetrahydrofuro[3,4-d]isoxazol-3-yl)nicotinamide], the EC50 (usually the concentration that produces a half-maximal response) turned out to be 2.5 nM.

The molecule `COc1ncc(C2=NOC3COCC23)cc1C(=O)N[C@H]1[C@@H](C(=O)N[C@H](C)C2(C)CC2)[C@H]2CC[C@@H]1/C2=C\C1CC1` (stereo partly drawn) [Example 137, N-((1R,2R,3S,4R,Z)-7-(cyclopropyl-methylene)-3-(((R)-1-(1-methylcyclopropyl)ethyl)carbamoyl)bicyclo[2.2.1]heptan-2-yl)-2-methoxy-5-(3a,4,6,6a-tetrahydrofuro[3,4-d]isoxazol-3-yl)nicotinamide] gave an EC50 of 3 nM.

The molecule `COc1ncc(C2=NOC3CC(O)CC23)cc1C(=O)N[C@H]1[C@@H](C(=O)Nc2ccc(F)c(C(F)(F)F)c2)[C@H]2CC[C@@H]1/C2=C\C1CC1` (stereo partly drawn) [Example 138, N-((1R,2R,3S,4R,Z)-7-(cyclopropyl-methylene)-3-((4-fluoro-3-(trifluoromethyl)phenyl)carbamoyl)bicyclo[2.2.1]heptan-2-yl)-5-(5-hydroxy-3a,5,6,6a-tetrahydro-4H-cyclopenta[d]isoxazol-3-yl)-2-methoxynicotinamide] returned an EC50 of 4.8 nM.

`COc1ncc(C2=NOC3CC(CO)CC23)cc1C(=O)N[C@H]1[C@@H](C(=O)Nc2ccc(F)c(C(F)(F)F)c2)[C@H]2CC[C@@H]1/C2=C\CCC(F)(F)F` (stereo partly drawn) [Example 139, N-((1R,2R,3S,4R,Z)-3-((4-fluoro-3-(trifluoromethyl)phenyl)carbamoyl)-7-(4,4,4-trifluorobutylidene)bicyclo[2.2.1]heptan-2-yl)-5-(5-(hydroxymethyl)-3a,5,6,6a-tetrahydro-4H-cyclopenta[d]isoxazol-3-yl)-2-methoxynicotinamide] gave an EC50 of 2.9 nM.

In turn, `COc1ncc(C2=NOC3CC(CO)CC23)cc1C(=O)N[C@H]1[C@@H](C(=O)N[C@H](C)C2(C)CC(F)(F)C2)[C@H]2CC[C@@H]1/C2=C\C1CC1` (stereo partly drawn) [Example 140, N-((1R,2R,3S,4R,Z)-7-(cyclopropyl-methylene)-3-(((R)-1-(3,3-difluoro-1-methylcyclobutyl)ethyl)carbamoyl)bicyclo[2.2.1]heptan-2-yl)-5-(5-(hydroxymethyl)-3a,5,6,6a-tetrahydro-4H-cyclopenta[d]isoxazol-3-yl)-2-methoxynicotinamide] registered an EC50 of 3.2 nM.

For `COc1ncc(C2=NOC3CC(CO)CC23)cc1C(=O)N[C@@H]1C2CCC(/C2=C/C2CC2)[C@@H]1C(=O)N[C@H](C)C1(C(F)(F)F)CC1` (some centres unmarked) [Example 141], the midpoint of the response, the EC50, lay at 3.4 nM.

The record behind these values is US20250011288A1 (BRISTOL-MYERS SQUIBB COMPANY, priority 2021, published 2025).
